Structures are written as SMILES.

The test system of data set [1] is brain slices containing the hippocampus (CA3 stimulation, CA1 recording). Put plainly: Electrophysiological LTP recording (fEPSP in hippocampal brain slices). The class given is cell-based, C57BL/6J mice. To be noted: for activation effects on LTP (in words): same detection method as Table 5. On the procedure: Test Example 3 Electrophysiological LTP Recording
3.1 Preparation of Brain Slices:
C57BL/6J mice aged 6-8 weeks was taken and anesthetized, then quickly decapitated. The scalp was cut open, and removed the skull and dura mater. Quickly removed the whole brain and placed it in 0-4° C. artificial cerebrospinal fluid (ACSF) saturated with 95% O2 and 5% CO2 to cool it slightly. Resected the cerebellum and one-third of the forebrain, divided the brain into two halves along the midline, and dissected the hippocampus along the cortical margin from the medial side of the brain. The brain tissue containing the hippocampus was fixed on a slide dish with glue, and cut into 400-micron-thick brain slices in the coronal plane by a vibrating microtome. The brain slices were then placed in an incubation chamber on a nylon mesh submerged beneath the liquid surface, continuously supplied with a mixed gas, and incubated at 34° C. in a water bath for 0.5 h. The slices were then transferred to room temperature (26±1° C.) for further incubation until ready for use, with the experiment commencing 2-3 hours later.
3.2 In vitro brain slice potential recording:
Under direct visualization with a surgical microscope, a bipolar metal tungsten wire stimulation electrode with exposed tip was placed on the Schaffer collateral pathway of the CA3 region. The stimulation electrode was connected to the stimulator via an isolator, and the recording electrode was connected to a […] via a microelectrode amplifier, and then connected to data acquisition software.
3.3 Electrophysiological recording:
Before recording field excitatory postsynaptic potentials (fEPSPs), the brain slice was transferred to a recording chamber, and continuously perfused the cerebrospinal fluid in a water bath with a mixture of gases (95% 02, 5% CO2). The stimulation electrode was inserted into the CA3 region of the hippocampus, and the recording electrode was inserted into the CA1 region of the hippocampus. When approaching the target location, the insertion depth of the stimulation electrode and recording electrode was slowly and precisely adjusted. At the same time, a pulse with a width of 1 ms was applied every 10-20 s, and the stimulus intensity was adjusted until the optimal fEPSP was achieved. Then the electrode position was fixed, and a stimulus intensity achieving 30-40% of the maximum response elicited at the optimal fEPSP was set as a stimulus intensity to record a baseline of fEPSP. The recording was continued for 20-30 min to establish a stable baseline value. Subsequently, perfusion administration was performed (initial exploratory dose of 30 μM), with the administration duration ranging from 20-30 minutes (depending on the drug's efficacy). If the drug enhanced or reduced fEPSP, normal ACSF was used for elution for 40-60 minutes to observe whether the enhanced effect could be sustained over the long term: if there was no significant change in fEPSP, the experiment was terminated. […] Experimental data and images were processed using Clampfit software.
4. Data Statistics and Analysis:
All experimental data were expressed as mean±standard error (Mean f SEM). All statistical analyses were performed using one-way ANOVA. Significant differences were indicated as follows: *p≤0.05, **p≤0.01, ***p≤0.001. p>0.05 indicated no significant difference.

Data set [2] can be described thus: Pharmacokinetic experiment (gavage, plasma). The data set is classed as in vivo. To be noted: rat, gavage (p.o.) 10 mg/kg; for AUC(0-t) / Cmax / Tmax: po. On the procedure:
Test Example 1 Pharmacokinetic Experiment
Accurately weighed approximately 10 mg of the test sample, dissolved in DMSO to a total volume of 10%, then slowly added 0.5% MC solvent to a total volume of 90% while stirring, sonicated, vortexed, and obtained a solution of visually homogeneous formulation with a concentration of 1 mg/mL; freshly prepared before use.
Pipetted 0.2 mL of the sample into a 1.5 mL centrifuge tube and stored at −80° C. for use in the concentration analysis of the drug solution.
The animals were housed in rat cages and fasted for at least 10 hours prior to the experiment, but had access to water. On the day of the experiment, the animals were weighed and marked on the tail. Blank blood samples were collected prior to drug administration. Blood was collected from the tail vein.
• Route of administration: gavage (p.o.) • Dosage concentration: 1 mg/ml • Dosage: 10 mg/kg • Volume: 10 mL/kg • Procedure: Caught the rat with left hand wearing bite-resistant gloves, hold it upright, inserted the gavage needle into its mouth and throat, and injected the drug into its stomach after confirming that there was no obvious resistance.
Test animals were sampled at 0.5 h, 1 h, 2 h, 4 h, 6 h, 8 h, 12 h, and 24 h post-administration, collected 0.1-0.2 ml of whole blood into EDTA-Na2 anticoagulant tubes, inverted the tubes 3-4 times to mix thoroughly, and centrifuged at 4° C. and 2000 g for 5 minutes to separate the upper layer of plasma. The plasma was promptly transferred to −80° C. for storage and analysis. Blood collection was performed via the tail vein.
(§1) 5. Sample Analysis and Data Processing
A quantitative detection method for the target compounds was established using Shimadzu liquid chromatography and Triple Quad TM 6500+AB mass spectrometry. The concentration of the parent drug in plasma was analyzed. The analysis results were controlled for variability using quality control samples, and the accuracy of the quality control samples should be between 80% and 120%.
The non-compartmental model in the winnonlin Phoenix software was used to calculate the main pharmacokinetic parameters. These included the area under the pharmacokinetic curve (AUC(0-t) and AUC(0-∞)), elimination half-life (T1/2), maximum plasma concentration (Cmax), and time to reach maximum plasma concentration (Tmax).

Data set [3] is described as follows: Brain-penetrating pharmacokinetic study (plasma, brain tissue). The data set is classed as in vivo, Sprague-Dawley (SD) rat. The conditions noted are these: SD rat, gavage (p.o.) 10 mg/kg single dose; for Kp: Sprague-Dawley, brain/plasma, po, read-out: Ratio of total drug in Brain tissue/plasma(B/P).
Excerpt: Test Example 2 Brain-Penetrating Pharmacokinetic Study
Solvent for Administration: 5% DMSO+10% Solutol HS15+85% physiological saline
Formulation preparation process: weighed an appropriate amount of powder, added an appropriate volume of DMSO, vortexed, then added an appropriate volume of Solutol solution, vortexed, and finally added an appropriate amount of physiological saline, vortexed and sonicated to obtain a homogeneous, clear formulation solution.
Two samples of the formulation were retained before administration, and the remaining formulation after administration was stored at 2-8° C. for shipment.
Laboratory animals were housed in the animal facility of Suzhou Xihua New Drug Development Co., Ltd. (license number: SYXK(Su)2021-0019). The animal facility was equipped with an air conditioning system and had good ventilation. The indoor temperature was maintained 20° C.-26° C., and the humidity was maintained 40%-70%4. Artificial lighting was used in the animal rooms, with 12 hours of light and 12 hours of darkness (except when work lighting was required for experimental operations and cleaning). The experimental animals were allowed to eat and drink water freely.
After purchase, the animals were fed normally for at least 3 days. […] Each rat was marked with a tail tag. Animals in the oral administration group were fasted overnight on the day before administration and resumed feeding 4 hours after administration, and free access to water.
• Route of administration: gavage (p.o.) • Concentration: 1 mg/ml • Dose: 10 mg/kg • Volume: 10 mL/kg • Frequency: Single dose
Before administration, checked the condition of the drug formulation and ensured its uniformity by swirling, stirring, or shaking. Calculated the theoretical dosage volume for each SD rat in each group using the following formula.
4. Sample Collection and Processing
Samples were collected from experimental rats at 0.5 h, 1 h, 2 h, 4 h, 6 h, 8 h, and 24 h after administration.
Plasma: At each time point, 0.15 mL of whole blood was collected via the jugular vein and placed in a tube containing anticoagulant (3 μL of 15% EDTA-K2 solution). The tubes were stored on wet ice and centrifuged within 1 hour (2,000 g, 2-8° C., for 10 minutes) to obtain plasma. The plasma was stored in pre-chilled centrifuge tubes, rapidly frozen in dry ice, and then stored at −60° C. or lower in an ultra-low temperature freezer until LC-MS/MS analysis.
Cerebrospinal fluid: the rats was euthanized using the carbon dioxide method. ~50 μL of cerebrospinal fluid was collected using a puncture method, 1 mL syringe was used with the needle bevel facing upward and the needle tip nearly horizontal to puncture the subarachnoid space, secured the needle and slowly withdrew the cerebrospinal fluid. The sample was stored in dry ice within 30 minutes after collection, then transferred it to a −90~−60° C. environment.
Brain tissue: A cardiac perfusion was performed first, followed by brain tissue extraction. Under deep terminal anesthesia, approximately 8 milliliters of physiological saline were used for cardiac perfusion to flush the remaining blood from the brain tissue out of the circulation. After extraction, the brain tissue was gently washed once with frozen physiological saline, blotted up the water, weighed, and then transferred to a storage environment at −90~−60° C. for cryopreservation.
as §1
A quantitative detection method for the target compounds was established using Shimadzu liquid chromatography and Triple Quad TM 6500+AB mass spectrometry. The concentration of the parent drug in the sample was analyzed. The analysis results were controlled for variability using quality control samples, and the accuracy of the quality control samples should be between 80% and 120%.
Winnonlin Phoenix 8.1.0.3530 was used to calculate pharmacokinetic parameters: Tmax, Cmax, AUC(0-t), AUC(0-∞), Tu2, MRT(0-∞), etc. […]

For the compound `C[C@@H](OC1=CC(=O)N[C@H]1Cc1ncccc1F)c1ccc(F)cc1` [Compound T-54], in data set [1], the “activation effects on LTP (in words)” value was “excellent activation effects on LTP”.

`C[C@@H](c1ncccc1F)[C@@H]1NC(=O)C=C1OCc1ccc(F)cc1` [Compound T-76]: the “activation effects on LTP (in words)” value in data set [1] is “excellent activation effects on LTP”.

As to `C[C@@H](c1ccccn1)[C@@H]1NC(=O)C=C1OCc1ccc(F)cc1` [Compound T-74], the “activation effects on LTP (in words)” value in data set [1] is “excellent activation effects on LTP”.

On to `O=C1C=C(OCc2ccc(F)cc2)[C@H](Cc2ccccc2)N1` [Compound 50561, reference compound], for which, in data set [2], the AUC(0-t) came out at 2500 ng·h/mL, the peak level (Cmax) was 838 ng/mL and the Tmax turned out to be 79.8 min.

With `O=C1C=C(OCc2ccc(F)cc2)[C@H](Cc2ncccc2F)N1` [Compound T-36], the “activation effects on LTP (in words)” value in data set [1] is “excellent activation effects on LTP”. Further, in data set [2], the AUC(0-t) amounted to 2470 ng·h/mL, the peak level (Cmax) was 1420 ng/mL and the Tmax worked out at 25.2 min.

With `C[C@@H](OC1=CC(=O)N[C@H]1Cc1ccccn1)c1ccc(F)cc1` [Compound T-51], the “activation effects on LTP (in words)” value in data set [1] was “excellent activation effects on LTP”. In addition, in data set [2], the AUC(0-t) worked out at 5700 ng·h/mL, the highest level (Cmax) was 2970 ng/mL, the Tmax stood at 15 min and the “pharmacokinetic properties (in words)” value is “excellent pharmacokinetic properties”.

On to `C[C@H](c1ncccc1F)[C@@H]1NC(=O)C=C1O[C@H](C)c1ccc(F)cc1` [Compound T-99], for which the “activation effects on LTP (in words)” value in data set [1] is on record as “excellent activation effects on LTP”.

In the case of `C[C@@H](OC1=CC(=O)N[C@H]1[C@@H](C)c1ccccn1)c1ccc(F)cc1` [Compound T-80], the “activation effects on LTP (in words)” value in data set [1] is reported as “excellent activation effects on LTP”.

Take `C[C@@H](OC1=CC(=O)N[C@H]1Cc1ccccc1)c1ccc(F)cc1` [Compound T-47]: the “activation effects on LTP (in words)” value in data set [1] is given as “excellent activation effects on LTP”. Further, the “Total drug exposure (AUC) in brain tissue” value (from here on “Total drug exposure (AUC)”) in data set [3] (brain tissue) is 11452 ng·h/mL. Further, the “Total drug exposure (AUC)” value in data set [3] (plasma) stood at 5529 ng·h/mL. Further, the Kp in data set [3] is 2.07. Further, in data set [2], the AUC(0-t) amounted to 6730 ng·h/mL, the Cmax is 1890 ng/mL, the Tmax was determined as 90 min and the “pharmacokinetic properties (in words)” value is given as “excellent pharmacokinetic properties”.

As to `C[C@@H](OC1=CC(=O)N[C@H]1[C@@H](C)c1ncccc1F)c1ccc(F)cc1` [Compound T-100], the “activation effects on LTP (in words)” value in data set [1] is “excellent activation effects on LTP”.

On to `C[C@H](c1ccccn1)[C@@H]1NC(=O)C=C1O[C@H](C)c1ccc(F)cc1` [Compound T-79], for which, in data set [1], the “activation effects on LTP (in words)” value is on record as “excellent activation effects on LTP”.

In the case of `[2H]C([2H])(OC1=CC(=O)N[C@H]1Cc1ccccc1)c1ccc(F)cc1` [Compound T-45], in data set [2], the AUC(0-t) was 3410 ng·h/mL, the Cmax stood at 1880 ng/mL and the Tmax amounted to 30 min.

For `C[C@@H](c1ccccc1)[C@@H]1NC(=O)C=C1OCc1ccc(F)cc1` [Compound T-95], in data set [2], the AUC(0-t) worked out at 5800 ng·h/mL, the highest level (Cmax) was 1030 ng/mL, the Tmax was found to be 49.8 min and the “pharmacokinetic properties (in words)” value was “excellent pharmacokinetic properties”.

Turning to `C[C@H](c1ncccc1F)[C@@H]1NC(=O)C=C1OCc1ccc(F)cc1` [Compound T-75], the “activation effects on LTP (in words)” value in data set [1] is “excellent activation effects on LTP”.

`O=C1C=C(OCc2ccc(F)cc2)[C@H](Cc2ccccn2)N1` [Compound T-01]: in data set [1] (perfusion administration, hippocampal slices), the “electrical signal conduction in brain slices (in words)” value is on record as “significantly enhanced electrical signal conduction in brain slices”. Moreover, the “activation of LTP compared with the control compound (in words)” value in data set [1] (versus Compound 50561) is recorded as “higher activation of LTP”. Further, the “Total drug exposure (AUC)” value in data set [3] (brain tissue) worked out at 1198 ng·h/mL. Besides, the “Total drug exposure (AUC)” value in data set [3] (plasma) is 1929 ng·h/mL. Besides, the Kp in data set [3] is 0.621. Further, in data set [2], the AUC(0-t) came out at 3500 ng·h/mL, the highest level (Cmax) was 1020 ng/mL and the Tmax was 79.8 min.

In the case of `C[C@H](c1ccccn1)[C@@H]1NC(=O)C=C1OCc1ccc(F)cc1` [Compound T-73], the “activation effects on LTP (in words)” value in data set [1] is “excellent activation effects on LTP”.

Values taken from patent US20260217671A1, “COMPOUND FOR PREVENTING AND/OR TREATING NEURODEGENERATIVE DISEASE” (TYK MEDICINES, INC., priority 2023, published 2026).
